Source: patent EP4813979A1, “COMPOUND FOR EGFR PROTEIN DEGRADATION AND USE THEREOF” (TYK Medicines, Inc., priority 2023, dated 2025)
Where two headings read alike, the source gives them in different places.

Tests used:
[1] = biological target: EGFR in Baf3-19del-T790M-C797S (Homo sapiens, UniProt P00533, C797S/DEL746-750/T790M); assay: EGFR PROTAC HTRF experiment (total EGFR degradation); format: cell-based
Method: (§1) [table] Among them, B[…] -C797S (abbreviated as Baf3-DTC) is a stable Ba/F3 clone expressing exogenous EGFR gene bearing T790M, C797S and […] triple amino acid mutations, purchased from KYinno; Baf3-L858R-T790M - C797S (abbreviated as Baf3-LTC) is a stable Ba/F3 clone expressing exogenous EGFR gene bearing […], T790M, C797S triple mutations, purchased from KYinno. [table] [table] Dilutded Eu and d2 antibodies 2μl per well with detection buffer 20-fold. Then mixed the two antibody vials thoroughly. [table] Opened EnVision , locate the HTRF program, configured the board, and then read […]. The fitted curve, DC50 and Dmax of this compound could be generated using GraphPad Prism .

[2] = biological target: EGFR in Baf3-L858R-T790M-C797S (Homo sapiens, UniProt P00533, C797S/L858R/T790M); assay: as above; format: cell-based
Method: as §1

A431 = assay: Cell anti-proliferation experiment (CTG); format: cell-based; conditions: Homo sapiens, A431 (wild-type EGFR), class symbol
Source text: (§2) H1975 has an EGFR: T790M/L858R double mutation, PC-9 has an EGFR exon 19 deletion, and HCC827 has an exon 19 deletion mutation. Baf3-19del- T790M -C797S (Baf3-DTC) is a stable Ba/F3 clone expressing exogenous EGFR gene bearing T790M, C797S, and […] triple amino acid mutations, purchased from KYinno. Baf3-L858R-T790M - C797S (Baf3-LTC) is a stable Ba/F3 clone expressing exogenous EGFR gene bearing […], T790M, and C797S triple mutations, purchased from KYinno. A549 is a wild-type EGFR, purchased from Nanjing Kebai Biotechnology. A431 is a wild-type EGFR, purchased from Shanghai Xinyu Biotechnology. CellCounting-Lite2.0, Trypsin EDTA, 37°C CO2 incubator, cell counter, EnVision Serial No. 1050454.
(§3) • A) Digested logarithmic phase cells with Trypsin EDTA, added culture medium to stop the reaction, and mixing well with a pipette to prepare a cell suspension. • B) Used Vi-cell to determine cell concentration, and prepared a suspension of 15,000-25,000 cells per milliliter according to the experimental purpose and cell characteristics. • C) After prepared the cell suspension, mixed it gently and added 100 µL to each well, so that the cell density to be tested is 1500-2500 per well.
(§4) • A) Weighed approximately 2 mg the compound and calculated the required volume of DMSO according to the formula: Compound mass (mg) * Compound purity (%) / Compound molecular weight * 1000. • B) Placed the inoculated cell culture plate into an incubator and incubated for about 24 hours. Then added compounds of varying concentrations. • C) Diluted the 10mM compound stock solution to […] with culture medium, and added the […] compound solution to the second column of the deep well plate in sequence, and added […] culture medium containing 0.5% DMSO to the third to eleventh columns. • D) Gradient dilution: Taked 125 µL solution from the second column and added it to the third column, mix well; then taked 125 µL solution from the third column and added it to the fourth column, repeated this operation until the tenth column. • E) Used a multichannel pipette, aspirated 25 µL the compound from the deep-well plate and added it to a 96-well culture plate. Repeated this process three times for each compound on the 96-well plate. This will ultimately create a concentration gradient of up to 10,000 nM at a 1:4 ratio on the 96-well plate.
(§5) • A) The effects of the compound were observed under an inverted microscope after the 96-well plate was incubated in an incubator for 72 hours. • B) Added 25 µL CTG solution to each well, placed on a shaker for 10 minutes, and read the […] of each well.
(§6) Calculate the % Cell Viability using the following formula: %Cell Viability = 100% × (Lum_Sample−Lum_LC)/(Lum_HC−Lum_LC) [formula] • Lum_HC: Cell readings from the 0.1% DMSO control group • Lum_Sample: Cell readings with added compound • Lum_LC: Blank culture medium reading
(§7) The IC50 value was obtained by curve fitting using GraphPad Prism 8 software.

A549 = assay: Cell anti-proliferation experiment (CTG); format: cell-based; conditions: Homo sapiens, A549 (wild-type EGFR), class symbol
Source text: as §2, §3, §4, §5, §6, §7

[3] = test system: Baf3-19del- T790M -C797S (Baf3-DTC); assay: Cell anti-proliferation experiment (CTG); format: cell-based; conditions: class symbol
Source text: as §2, §3, §4, §5, §6, §7

[4] = test system: Baf3-L858R-T790M - C797S (Baf3-LTC); assay: Cell anti-proliferation experiment (CTG); format: cell-based; conditions: class symbol
Source text: as §2, §3, §4, §5, §6, §7

H1975 = assay: Cell anti-proliferation experiment (CTG); format: cell-based; conditions: Homo sapiens, H1975 (EGFR T790M/L858R), class symbol
Source text: as §2, §3, §4, §5, §6, §7

HCC827 = assay: Cell anti-proliferation experiment (CTG); format: cell-based; conditions: Homo sapiens, HCC827 (exon 19 deletion), class symbol
Source text: as §2, §3, §4, §5, §6, §7

PC-9 = assay: Cell anti-proliferation experiment (CTG); format: cell-based; conditions: Homo sapiens, PC-9 (EGFR exon 19 deletion), class symbol
Source text: as §2, §3, §4, §5, §6, §7

[5] = Pharmacokinetic tests in male SD rats; format: in vivo; conditions: oral gavage (po), 10 mg/kg, plasma
Method: Three healthy adult male SD rats, 6-8 weeks old, weighing 200-300 grams.
EDTA-Na2 anticoagulant, weighed 11.2 g EDTA-Na2 and placed it in a reagent bottle. Added 100 mL physiological saline and shaked to dissolve completely. After preparation, dispensed into 1.5 mL centrifuge tubes, each containing approximately 20 µL, for whole blood sample collection.
Accurately weighed approximately 10 mg the sample to be tested, added 10% of the converted total volume of DMSO to dissolve it, and then slowly added 90% of the total volume of 0.5% MC solvent while stirring. Sonicated and vortex to mix thoroughly to obtain a solution of the preparation that is considered to be homogeneous, with a concentration of 1 mg/mL. Prepared fresh immediately before use.
Piped 0.2 mL the sample into a 1.5 mL centrifuge tube and store at -80°C for analysis of the concentration of the drug solution.
Animals were housed in rat cages and fasted for at least 10 hours starting the day before the experiment, but water was allowed. On the day of the experiment, each animal was weighed and marked on its tail. Blank blood samples were collected before drug administration. Blood was collected via tail vein.
• Route of administration: Oral gavage (po); • Dosage concentration: 1 mg/ml; • Dosage: 10 mg/kg; • Dosage volume: 10 mL/kg; • Procedure: Hold the rat upright with your left hand wearing a bite-proof glove, insert the gavage needle into the throat through the mouth, and insert the needle when feeling no obvious resistance. Then inject the drug into the stomach.
Whole blood (0.1-0.2 ml) was collected from test animals at 0.5 h, 1 h, 2 h, 4 h, 6 h, 8 h, 12 h, and 24 h after drug administration. The samples were placed in EDTA-Na 2 anticoagulant tubes, inverted 3-4 times to mix, and centrifuged at 4°C, 2000 g for 5 min to separate the supernatant plasma. The plasma was promptly transferred to -80°C for storage until analysis. Blood was collected via tail vein.
A quantitative detection method for the analyte was established using Shimadzu liquid chromatography and Triple Quad™ 6500+AB mass spectrometry. The concentration of the parent drug in plasma was analyzed. The analytical results were controlled for variation using quality control samples, with the accuracy of the quality control samples expected to be between 80% and 120%.
The main pharmacokinetic parameters were calculated using a non-compartmental model in Winnonlin Phoenix software. These parameters included the area under the curve (AUC(0-t) and AUC(0-∞)), elimination half-life (T1/2), maximum plasma concentration (Cmax ), and time to reach maximum plasma concentration (Tmax).The results are shown in Table 3.

[6] = Baf3-DTC, incubated 16 hours, HTRF total EGFR; read-out: Baf3-DTC DC50
[7] = Baf3-DTC, incubated 16 hours, HTRF total EGFR; read-out: Baf3-DTC Dmax
[8] = Baf3-LTC, incubated 16 hours, HTRF total EGFR; read-out: Baf3-LTC DC50
[9] = Baf3-LTC, incubated 16 hours, HTRF total EGFR; read-out: Baf3-LTC Dmax

Chain of EGFR in Baf3-19del-T790M-C797S (P00533 with tags, fused parts or gaps DEL746-750/T790M/C797S): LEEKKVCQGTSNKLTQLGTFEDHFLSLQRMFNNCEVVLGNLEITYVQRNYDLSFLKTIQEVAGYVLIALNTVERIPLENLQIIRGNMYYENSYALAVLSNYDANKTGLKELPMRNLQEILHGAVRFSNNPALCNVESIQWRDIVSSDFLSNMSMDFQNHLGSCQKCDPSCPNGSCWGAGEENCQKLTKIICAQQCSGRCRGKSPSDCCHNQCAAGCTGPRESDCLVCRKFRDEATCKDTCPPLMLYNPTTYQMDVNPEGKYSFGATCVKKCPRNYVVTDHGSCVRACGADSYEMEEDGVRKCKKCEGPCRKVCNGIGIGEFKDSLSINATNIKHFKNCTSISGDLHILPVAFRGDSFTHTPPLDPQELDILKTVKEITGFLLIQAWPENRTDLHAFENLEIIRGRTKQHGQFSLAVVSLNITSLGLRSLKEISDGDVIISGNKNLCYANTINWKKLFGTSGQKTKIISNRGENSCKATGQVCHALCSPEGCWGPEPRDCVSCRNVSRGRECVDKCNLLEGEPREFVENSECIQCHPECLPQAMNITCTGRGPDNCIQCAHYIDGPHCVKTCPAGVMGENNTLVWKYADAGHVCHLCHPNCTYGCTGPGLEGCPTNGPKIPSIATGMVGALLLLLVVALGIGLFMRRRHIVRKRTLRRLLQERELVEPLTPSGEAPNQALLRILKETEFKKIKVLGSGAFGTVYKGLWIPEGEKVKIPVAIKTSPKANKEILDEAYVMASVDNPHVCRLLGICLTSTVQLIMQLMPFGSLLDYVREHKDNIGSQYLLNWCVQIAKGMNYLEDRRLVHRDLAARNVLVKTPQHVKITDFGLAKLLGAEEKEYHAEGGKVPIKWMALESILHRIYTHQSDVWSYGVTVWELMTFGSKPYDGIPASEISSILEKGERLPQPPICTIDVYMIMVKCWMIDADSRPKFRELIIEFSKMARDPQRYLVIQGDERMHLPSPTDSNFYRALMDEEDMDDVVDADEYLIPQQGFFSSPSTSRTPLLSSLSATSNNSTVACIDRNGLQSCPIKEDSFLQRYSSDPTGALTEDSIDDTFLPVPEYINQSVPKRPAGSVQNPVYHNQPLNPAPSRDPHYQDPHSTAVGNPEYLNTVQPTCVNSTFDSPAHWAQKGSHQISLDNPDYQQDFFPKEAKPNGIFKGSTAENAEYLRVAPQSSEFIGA
Chain of EGFR in Baf3-L858R-T790M-C797S (P00533 25-1210 T790M/C797S/L858R): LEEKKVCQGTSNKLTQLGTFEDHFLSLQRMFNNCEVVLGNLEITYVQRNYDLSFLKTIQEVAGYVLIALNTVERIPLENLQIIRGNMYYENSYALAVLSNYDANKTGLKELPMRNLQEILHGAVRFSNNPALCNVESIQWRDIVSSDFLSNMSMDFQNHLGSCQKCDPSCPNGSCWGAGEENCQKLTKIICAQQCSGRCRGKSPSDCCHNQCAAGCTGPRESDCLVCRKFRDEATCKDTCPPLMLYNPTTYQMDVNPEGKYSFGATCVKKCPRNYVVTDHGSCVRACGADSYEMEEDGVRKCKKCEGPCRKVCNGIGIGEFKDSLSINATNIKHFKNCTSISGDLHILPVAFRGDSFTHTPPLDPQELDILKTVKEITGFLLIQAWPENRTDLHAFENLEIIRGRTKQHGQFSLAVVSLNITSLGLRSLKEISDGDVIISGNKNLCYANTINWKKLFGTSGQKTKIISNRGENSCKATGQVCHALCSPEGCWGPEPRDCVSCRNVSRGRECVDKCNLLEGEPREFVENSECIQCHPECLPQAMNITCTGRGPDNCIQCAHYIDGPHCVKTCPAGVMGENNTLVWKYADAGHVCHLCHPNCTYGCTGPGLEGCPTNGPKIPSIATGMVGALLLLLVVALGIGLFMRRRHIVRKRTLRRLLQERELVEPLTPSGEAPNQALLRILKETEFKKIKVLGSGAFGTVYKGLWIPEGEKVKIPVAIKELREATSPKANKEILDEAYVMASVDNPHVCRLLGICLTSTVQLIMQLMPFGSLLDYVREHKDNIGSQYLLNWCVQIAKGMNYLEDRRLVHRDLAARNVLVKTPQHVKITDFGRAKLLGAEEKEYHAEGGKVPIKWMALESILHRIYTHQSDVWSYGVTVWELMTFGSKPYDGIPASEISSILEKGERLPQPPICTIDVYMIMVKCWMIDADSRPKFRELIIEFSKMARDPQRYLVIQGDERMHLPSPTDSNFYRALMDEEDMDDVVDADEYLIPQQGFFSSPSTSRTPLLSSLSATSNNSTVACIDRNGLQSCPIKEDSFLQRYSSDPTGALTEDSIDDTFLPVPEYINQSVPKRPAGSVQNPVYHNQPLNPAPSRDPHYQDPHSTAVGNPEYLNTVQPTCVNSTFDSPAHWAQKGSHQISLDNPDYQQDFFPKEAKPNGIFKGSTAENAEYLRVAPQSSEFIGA

Structure (SMILES) | DC50 [1, 6] [nM] | Dmax [1, 7] [%] | DC50 [2, 8] [nM] | Dmax [2, 9] [%] | IC50 (A431; A-431, 72 h) [nM] | IC50 (A549; A549, 72 h) [nM] | IC50 ([3]; 72 h) [nM] | IC50 ([4]; 72 h) [nM] | IC50 (H1975; NCI-H1975, 72 h) [nM] | IC50 (HCC827; HCC827, 72 h) [nM] | IC50 (PC-9; PC-9, 72 h) [nM] | Dmax ([1]; read-out: Baf3-DTC Dmax) [%] | Dmax ([2]; read-out: Baf3-LTC Dmax) [%] | other results
CCc1cc(Nc2ncc(Cl)c(Nc3ccc(OC)cc3C(C)=O)n2)c(OC)cc1N1CCN(C(=O)CN2CCC(c3cc4c(cc3F)c(N3CCC(=O)NC3=O)nn4C)C(F)(F)C2)CC1 (stereo not drawn) [TA-017] | 100 to 1000 | 70 to 100 | 100 to 1000 | 70 to 100 | – | – | – | – | – | – | – | – | – | –
CCc1cc(Nc2ncc(Cl)c(Nc3ccccc3C(=O)NC)n2)c(OC)cc1N1CCN(CCN2CCC(c3cc4c(cc3F)c(N3CCC(=O)NC3=O)nn4C)CC2)CC1 [TD-001] | 100 to 1000 | 50 to 70 | 10 to 100 | 50 to 70 | > 1000 | 10 to 100 | 10 to 100 | 10 to 100 | < 10 | < 10 | 100 to 1000 | – | – | –
CCc1ccc(Nc2nc(Nc3cc(CC)c(N4CCN(C(=O)CN5CCC(c6cc7c(cc6F)c(N6CCC(=O)NC6=O)nn7C)C(F)(F)C5)CC4)cc3OC)ncc2Cl)c(P(C)(C)=O)c1 (stereo not drawn) [TA-035] | 10 to 100 | – | 10 to 100 | – | – | – | – | – | – | – | – | 70 to 100 | 70 to 100 | –
CCc1cc(Nc2ncc(Cl)c(Nc3ccccc3N(C)S(C)(=O)=O)n2)c(OC)cc1N1CCN(C(=O)CN2CCC(c3cc4c(cc3F)c(N3CCC(=O)NC3=O)nn4C)C(F)(F)C2)CC1 (stereo not drawn) [TA-013] | < 10 | 70 to 100 | < 10 | 70 to 100 | > 1000 | > 1000 | < 10 | 10 to 100 | 10 to 100 | > 1000 | > 1000 | – | – | –
CCc1cc(Nc2ncc(Cl)c(Nc3ccc4nccnc4c3P(C)(C)=O)n2)c(OC)cc1N1CCN(C(=O)CN2CCC(c3cc4c(cc3F)c(N3CCC(=O)NC3=O)nn4C)C(F)(F)C2)CC1 (stereo not drawn) [TA-007] | – | – | – | – | – | – | – | – | – | – | – | 70 to 100 | 70 to 100 | IC50 (A431; A-431, 72 hours): 10 to 100 nM; IC50 (A549; 72 hours): 10 to 100 nM; IC50 ([3]; 72 hours): 10 to 100 nM; IC50 ([4]; 72 hours): < 10 nM; IC50 (H1975; NCI-H1975, 72 hours): 100 to 1000 nM; IC50 (HCC827; 72 hours): 10 to 100 nM; IC50 (PC-9; 72 hours): 100 to 1000 nM; DC50 ([1]; read-out: Baf3-DTC DC50; Baf3-DTC, incubated 16 hours, HTRF total EGFR): < 10 nM; DC50 ([2]; read-out: Baf3-LTC DC50; Baf3-LTC, incubated 16 hours, HTRF total EGFR): < 10 nM
CCc1cc(Nc2ncc(Br)c(Nc3ccccc3P(C)(C)=O)n2)c(OC)cc1N1CCN(C(=O)Cn2nc(C)c(-c3cc4c(cc3F)c(N3CCC(=O)NC3=O)nn4C)c2C)CC1 [TC-144] | – | – | – | – | > 1000 | 100 to 1000 | < 10 | < 10 | 10 to 100 | 100 to 1000 | 100 to 1000 | – | – | HL [5]: 3.21 h; AUC(0-inf) ([5]; rat, in vivo): 4140 ng·h/mL; AUC(0-t) ([5]; rat, in vivo): 4120 ng·h/mL; Cmax ([5]; rat, in vivo): 700 ng/mL; MRT last ([5]; rat, in vivo): 4.23 h; Tmax ([5]; rat, in vivo): 0.67 h
CCc1cc(Nc2ncc(Cl)c(Nc3ccccc3P(C)(C)=O)n2)c(OC)cc1N1CCN(C(=O)CN2CCC(c3cc4c(cc3F)c(N3CCC(=O)NC3=O)nn4C)C(F)(F)C2)[C@@H](C)C1 (stereo partly drawn) [TA-025] | 10 to 100 | 70 to 100 | 10 to 100 | 70 to 100 | – | – | – | – | – | – | – | – | – | –
CCc1cc(Nc2ncc(Cl)c(Nc3ccc(Cl)cc3C(C)(C)O)n2)c(OC)cc1N1CCN(C(=O)CN2CCC(c3cc4c(cc3F)c(N3CCC(=O)NC3=O)nn4C)C(F)(F)C2)CC1 (stereo not drawn) [TA-009] | 100 to 1000 | 70 to 100 | 100 to 1000 | 70 to 100 | – | – | – | – | – | – | – | – | – | –
CCc1cc(Nc2ncc(Cl)c(Nc3ccccc3P3(=O)CCCC3)n2)c(OC)cc1N1CCN(C(=O)CN2CCC(c3cc4c(cc3F)c(N3CCC(=O)NC3=O)nn4C)C(F)(F)C2)CC1 (stereo not drawn) [TA-045] | 10 to 100 | – | 10 to 100 | – | – | – | – | – | – | – | – | 70 to 100 | 70 to 100 | –
